Read-outs that look alike come from different tables or passages of the source.
Legend:
IL-6 = assay: LPS-stimulated whole bovine blood assay, MSD cytokine detection; type: cell-based; details: read-out: IL-6 (IC50 μM)
Text: In order to correlate RNA sequencing data to cytokine changes the whole blood assay was utilized. […] The enhancement result represents an overall stimulation of cytokine levels due to cellular stress or potential toxicity with increasing concentrations of the compound, representing a typical bell shape response curve for immunomodulatory activity.

IL-1β = assay: as above; type: cell-based; details: overstimulation of IL-1β, LPS-stimulated bovine whole blood
P. multocida 46572 = assay: In vivo mouse lung infection challenge model (murine efficacy); parameters: species or system CD-1 female mice; details: 20 mg/kg subcutaneous, P. multocida challenge; harmonized against the comparative vehicle survival rate
Experimental: The challenge organism was P. multocida 46572. Target challenge concentration was 5×10^2 CFU/mouse. Isolated colonies from overnight growth (37° C. with 5% CO2) on trypticase soy agar (TSA II) blood plates were transferred to room temperature Brain Heart Infusion Broth (BHIB). The broth culture was incubated 3.5-4 hours to approximately mid-log phase of growth, as measured by forward light scatter at 600 nm (OD600, 0.200). The culture was centrifuged to collect the bacterial pellet. The pellet was re-suspended in BHIB and adjusted to provide an approximate concentration of 2.7 log^10 colony forming units (CFU) in 0.04 mL at the highest concentration. The challenge inoculum concentration was confirmed by serial dilutions of the inoculum for CFU enumeration. On Day −5, CD-1 female mice were received. Mice were given standard rodent diet and water ad libitum. On Day 0, bacterial inoculum (0.04 mL) was administered to each mouse (n=36) intranasally. Compounds of the invention were dosed at 20 mg/kg (0.1 mL) in a buffered (˜pH 5.4) propylene glycol, monothioglycerol and water solution by subcutaneous injection. Animals were observed from Days 1-10. The study was terminated on Day 10. In addition, some treatment groups were sampled at 6, 24, and 48 hours post bacterial challenge for RNA sequence analysis of lung tissue.
The murine efficacy model (P. multocida challenge) was optimized, and the treatment group size was powered to be able to observe statistically significant improvement of survival to expected ranges for immunomodulatory compounds. The experimental design was a randomized complete block design. Mice were individually identified and treatment groups comingled within a cage, with every treatment group equally represented across cages. Mortality was the primary variable. Mortality data was analyzed using a generalized mixed model with fixed effect of treatment and random effect of block. Survival time was also analyzed using the SAS PHREG (survival analysis) procedure to examine whether there were significant differences between treatment groups and the control group. Numerous compounds of the invention and M9 (positive control) were tested in this model at a dose of 20 mg/kg. Typical percent survival for no treatment control is in the range of 0-20% based on study to study variation in challenge inoculum and rate of infection. […] Mouse survival for M9 was about 90-100%, further supporting its antibacterial properties against the bacterial strain (Table 3). Survival values presented are harmonized against the comparative vehicle survival rate.

TNF-α = assay: LPS-stimulated whole bovine blood assay, MSD cytokine detection; type: cell-based; details: Bos taurus, read-out: TNF-α (IC50 μM)
[1] = test system: BRD pathogens, M. haemolytica and P. multocida; assay: MIC screening panel of BRD pathogens (antibacterial / non-antibacterial); details: read-out: antibacterial / non-antibacterial (MIC for the BRD pathogens)
[2] = LPS-stimulated bovine whole blood
[3] = Bos taurus, LPS-stimulated bovine whole blood

SMILES: CC[C@H]1OC(=O)[C@H](C)[C@@H](O[C@H]2C[C@@](C)(OC)[C@@H](O)[C@H](C)O2)[C@H](C)[C@@H](O[C@@H]2O[C@H](C)C[C@H](N(C)C(=O)N(C)c3ccc(C(F)(F)F)cc3)[C@H]2O)[C@](C)(O)C[C@@H](C)CN[C@H](C)[C@@H](O)[C@]1(C)O [Example B-2, 1-((2S,3R,4S,6R)-2-(((2R,3S,4R,5R,8R,10R,11R,12S,13S,4R)-2-ethyl-3,4,10-trihydroxy-13-(((2R,4R,5S,6S)-5-hydroxy-4-methoxy-4,6-dimethyltetrahydro-2H-pyran-2-yl)oxy)-3,5,8,10,12,14-hexamethyl-15-oxo-1-oxa-6-azacyclopentadecan-11-yl)oxy)-3-hydroxy-6-methyltetrahydro-2H-pyran-4-yl)-1,3-dimethyl-3-(4-(trifluoromethyl)phenyl)urea]
- IC50 (IL-6; [2]): 52 µM
- IL-1β OS of LPS (IL-1β): 40 µM
- Mouse Murine Percent Survival (P. multocida 46572): 28%

SMILES: CC[C@H]1OC(=O)[C@H](C)[C@@H](O[C@H]2C[C@@](C)(OC)[C@@H](O)[C@H](C)O2)[C@H](C)[C@@H](O[C@@H]2O[C@H](C)C[C@H](N(C)C(=O)N(C)c3ccc(C(F)(F)F)cc3)[C@H]2O)[C@](C)(O)C[C@@H](C)CN(C)[C@H](C)[C@@H](O)[C@]1(C)O [Example B-6, 1-((2S,3R,4S,6R)-2-(((2R,3S,4R,5R,8R,10R,11R,12S,13S,14R)-2-ethyl-3,4,10-trihydroxy-13-(((2R,4R,5S,6S)-5-hydroxy-4-methoxy-4,6-dimethyltetrahydro-2H-pyran-2-yl)oxy)-3,5,6,8,10,12,14-heptamethyl-15-oxo-1-oxa-6-azacyclopentadecan-11-yl)oxy)-3-hydroxy-6-methyltetrahydro-2H-pyran-4-yl)-1,3-dimethyl-3-(4-(trifluoromethyl)phenyl)urea]
- IC50 (IL-6; [3]): 41 µM
- IC50 (TNF-α; [2]): 12 µM
- IL-1β OS of LPS (IL-1β): 40 µM
- Mouse Murine Percent Survival (P. multocida 46572): 1%

SMILES: CC[C@H]1OC(=O)[C@H](C)[C@@H](O[C@H]2C[C@@](C)(OC)[C@@](C)(O)[C@H](C)O2)[C@H](C)[C@@H](O[C@@H]2O[C@H](C)C[C@H](N(C)C(=O)N(C)c3ccc(C(F)(F)F)cc3)[C@H]2O)[C@](C)(O)C[C@@H](C)CN[C@H](C)[C@@H](O)[C@]1(C)O [Example B-13, 1-((2S,3R,4S,6R)-2-(((2R,3S,4R,5R,8R,10R,11R,12S,13S,14R)-2-ethyl-3,4,10-trihydroxy-13-(((2R,4R,5S,6S)-5-hydroxy-4-methoxy-4,5,6-trimethyltetrahydro-2H-pyran-2-yl)oxy)-3,5,8,10,12,14-hexamethyl-15-oxo-1-oxa-6-azacyclopentadecan-11-yl)oxy)-3-hydroxy-6-methyltetrahydro-2H-pyran-4-yl)-1,3-dimethyl-3-(4-(trifluoromethyl)phenyl)urea]
- IC50 (IL-6; [3]): 51 µM
- IC50 (TNF-α; [2]): 14 µM
- IL-1β OS of LPS (IL-1β): 16 µM
- Mouse Murine Percent Survival (P. multocida 46572): 48%
- MIC [1]: > 64 µg/mL

SMILES: CCCNC[C@]1(O)[C@H](C)O[C@@H](O[C@H]2[C@H](C)[C@@H](O[C@@H]3O[C@H](C)C[C@H](N(C)C(=O)Nc4cccnc4)[C@H]3O)[C@](C)(O)C[C@@H](C)CN[C@H](C)[C@@H](O)[C@](C)(O)[C@@H](CC)OC(=O)[C@@H]2C)C[C@@]1(C)OC [Example H-72, 1-((2S,3R,4S,6R)-2-(((2R,3S,4R,5R,8R,10R,11R,12S,13S,14R)-2-ethyl-3,4,10-trihydroxy-13-(((2R,4R,5S,6S)-5-hydroxy-4-methoxy-4,6-dimethyl-5-((propylamino)methyl)tetrahydro-2H-pyran-2-yl)oxy)-3,5,8,10,12,14-hexamethyl-15-oxo-1-oxa-6-azacyclopentadecan-11-yl)oxy)-3-hydroxy-6-methyltetrahydro-2H-pyran-4-yl)-1-methyl-3-(pyridin-3-yl)urea]
- IC50 (IL-6; [3]): > 500 µM
- IC50 (TNF-α; [2]): > 500 µM
- IL-1β OS of LPS (IL-1β): >500 µM
- Mouse Murine Percent Survival (P. multocida 46572): 4%

SMILES: CCCNC[C@]1(O)[C@H](C)O[C@@H](O[C@H]2[C@H](C)[C@@H](O[C@@H]3O[C@H](C)C[C@H](N(C)C(=O)Nc4cnn(C)c4)[C@H]3O)[C@](C)(O)C[C@@H](C)CN[C@H](C)[C@@H](O)[C@](C)(O)[C@@H](CC)OC(=O)[C@@H]2C)C[C@@]1(C)OC [Example H-74, 1-((2S,3R,4S,6R)-2-(((2R,3S,4R,5R,8R,10R,11R,12S,13S,14R)-2-ethyl-3,4,10-trihydroxy-13-(((2R,4R,5S,6S)-5-hydroxy-4-methoxy-4,6-dimethyl-5-((propylamino)methyl)tetrahydro-2H-pyran-2-yl)oxy)-3,5,8,10,12,14-hexamethyl-15-oxo-1-oxa-6-azacyclopentadecan-11-yl)oxy)-3-hydroxy-6-methyltetrahydro-2H-pyran-4-yl)-1-methyl-3-(1-methyl-1H-pyrazol-4-yl)urea]
- IC50 (IL-6; Bos taurus): > 500 µM
- IC50 (TNF-α): ~600 µM
- IL-1β OS of LPS (IL-1β): >500 µM
- Mouse Murine Percent Survival (P. multocida 46572): 11%

SMILES: CCCNC(=O)N(C)[C@H]1C[C@@H](C)O[C@@H](O[C@@H]2[C@@H](C)[C@H](O[C@H]3C[C@@](C)(OC)[C@](O)(CNc4ccc(C(F)(F)F)cc4)[C@H](C)O3)[C@@H](C)C(=O)O[C@H](CC)[C@@](C)(O)[C@H](O)[C@@H](C)NC[C@H](C)C[C@@]2(C)O)[C@@H]1O [Example H-95, 1-((2S,3R,4S,6R)-2-(((2R,3S,4R,5R,8R,10R,11R,12S,13S,14R)-2-ethyl-3,4,10-trihydroxy-13-(((2R,4R,5S,6S)-5-hydroxy-4-methoxy-4,6-dimethyl-5-(((4-(trifluoromethyl)phenyl)amino)methyl)tetrahydro-2H-pyran-2-yl)oxy)-3,5,8,10,12,14-hexamethyl-15-oxo-1-oxa-6-azacyclopentadecan-11-yl)oxy)-3-hydroxy-6-methyltetrahydro-2H-pyran-4-yl)-1-methyl-3-propylurea]
- IC50 (TNF-α; [2]): 10 µM
- IL-1β OS of LPS (IL-1β): 13 µM
- Mouse Murine Percent Survival (P. multocida 46572): 39%
- MIC [1]: > 64 µg/mL

SMILES: CC[C@H]1OC(=O)[C@H](C)[C@@H](O[C@H]2C[C@@](C)(OC)[C@](O)(CN3CCN(C)CC3)[C@H](C)O2)[C@H](C)[C@@H](O[C@@H]2O[C@H](C)C[C@H](N(C)C(=O)NC(C)(C)C)[C@H]2O)[C@](C)(O)C[C@@H](C)CN[C@H](C)[C@@H](O)[C@]1(C)O [Example J-3, 3-(tert-butyl)-1-((2S,3R,4S,6R)-2-(((2R,3S,4R,5R,8R,10R,11R,12S,13S,14R)-2-ethyl-3,4,10-trihydroxy-13-(((2R,4R,5S,6S)-5-hydroxy-4-methoxy-4,6-dimethyl-5-((4-methylpiperazin-1-yl)methyl)tetrahydro-2H-pyran-2-yl)oxy)-3,5,8,10,12,14-hexamethyl-15-oxo-1-oxa-6-azacyclopentadecan-11-yl)oxy)-3-hydroxy-6-methyltetrahydro-2H-pyran-4-yl)-1-methylurea]
- IC50 (IL-6; [3]): 225 µM
- IC50 (TNF-α; [2]): 200 µM
- IL-1β OS of LPS (IL-1β): 200 µM
- Mouse Murine Percent Survival (P. multocida 46572): 25%

SMILES: CC[C@H]1OC(=O)[C@H](C)[C@@H](O[C@H]2C[C@@](C)(OC)[C@](O)(CN3CCN(C)CC3)[C@H](C)O2)[C@H](C)[C@@H](O[C@@H]2O[C@H](C)C[C@H](N(C)C(=O)Nc3ccccc3)[C@H]2O)[C@](C)(O)C[C@@H](C)CN[C@H](C)[C@@H](O)[C@]1(C)O [Example J-7, 1-((2S,3R,4S,6R)-2-(((2R,3S,4R,5R,8R,10R,11R,12S,13S,14R)-2-ethyl-3,4,10-trihydroxy-13-(((2R,4R,5S,6S)-5-hydroxy-4-methoxy-4,6-dimethyl-5-((4-methylpiperazin-1-yl)methyl)tetrahydro-2H-pyran-2-yl)oxy)-3,5,8,10,12,14-hexamethyl-15-oxo-1-oxa-6-azacyclopentadecan-11-yl)oxy)-3-hydroxy-6-methyltetrahydro-2H-pyran-4-yl)-1-methyl-3-phenylurea]
- IC50 (IL-6; [3]): > 500 µM
- IC50 (TNF-α; [2]): 200 µM
- IL-1β OS of LPS (IL-1β): 200 µM
- Mouse Murine Percent Survival (P. multocida 46572): 39%

— patent publication US12295936B2, “Immunomodulating urea azalides” (Zoetis Services LLC, priority 2020, dated 2025)
